Source: patent US9487512B2, “(Hetero)aryl cyclopropylamine compounds as LSD1 inhibitors” (ORYZON GENOMICS, S.A., priority 2011, dated 2016)

Legend:
[1] = target: Human recombinant monoamine oxidase MAO-A (Homo sapiens (Human), UniProt P21397); test: Monoamine oxidase assay (kynuramine to 4-hydroxyquinoline fluorescence), MAO-A; assay type: biochemical
From the text: (§1) Human recombinant monoamine oxidase proteins MAO-A and MAO-B were purchased from Sigma Aldrich. MAOs catalyze the oxidative deamination of primary, secondary and tertiary amines. In order to monitor MAO enzymatic activities and/or their inhibition rate by inhibitor(s) of interest, a fluorescence-based (inhibitor)-screening assay was set up. 3-(2-Aminophenyl)-3-oxopropanamine (kynuramine dihydrobromide, Sigma Aldrich), a non fluorescent compound was chosen as a substrate. Kynuramine is a non-specific substrate for both MAO-A and MAO-B activities. While undergoing oxidative deamination by MAO activities, kynuramine is converted into 4-hydroxyquinoline (4-HQ), a resulting fluorescent product.
(§2) The monoamine oxidase activity was estimated by measuring the conversion of kynuramine into 4-hydroxyquinoline. Assays were conducted in 96-well black plates with clear bottom (Corning) in a final volume of 100 μL. The assay buffer was 100 mM HEPES, pH 7.5. Each experiment was performed in duplicate within the same experiment.
(§3) Clorgyline and Deprenyl (Sigma Aldrich) was used as a control for specific inhibition of MAO-A and MAO-B respectively. […]
(§4) The IC50 values of each inhibitor were calculated with GraphPad Prism Software.

[2] = target: Human recombinant monoamine oxidase MAO-B (Homo sapiens (Human), UniProt P27338); test: Monoamine oxidase assay (kynuramine to 4-hydroxyquinoline fluorescence), MAO-B; assay type: biochemical
Sequence of Human recombinant monoamine oxidase MAO-B (P27338 whole entry): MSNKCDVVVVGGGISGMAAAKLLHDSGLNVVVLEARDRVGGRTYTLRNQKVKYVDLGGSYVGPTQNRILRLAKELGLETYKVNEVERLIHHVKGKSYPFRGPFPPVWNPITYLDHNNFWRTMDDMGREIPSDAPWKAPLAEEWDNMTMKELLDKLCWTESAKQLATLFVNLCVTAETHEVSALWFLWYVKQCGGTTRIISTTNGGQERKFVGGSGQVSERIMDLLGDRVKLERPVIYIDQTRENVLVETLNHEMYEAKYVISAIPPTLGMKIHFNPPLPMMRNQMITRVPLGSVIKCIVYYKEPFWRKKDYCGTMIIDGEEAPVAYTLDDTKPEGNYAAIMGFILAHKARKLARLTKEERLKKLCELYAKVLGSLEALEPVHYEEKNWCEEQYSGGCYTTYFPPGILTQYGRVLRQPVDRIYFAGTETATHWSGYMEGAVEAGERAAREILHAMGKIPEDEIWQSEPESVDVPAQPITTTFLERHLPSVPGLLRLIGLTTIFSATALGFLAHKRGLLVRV
From the text: as §1, §2, §3, §4

[3] = target: Human recombinant LSD1 protein (Homo sapiens (Human), UniProt O60341); test: Inhibition of LSD1 (Amplex Red H2O2 release, di-methylated H3-K4 peptide substrate)

Sequence of Human recombinant monoamine oxidase MAO-A (P21397 whole entry): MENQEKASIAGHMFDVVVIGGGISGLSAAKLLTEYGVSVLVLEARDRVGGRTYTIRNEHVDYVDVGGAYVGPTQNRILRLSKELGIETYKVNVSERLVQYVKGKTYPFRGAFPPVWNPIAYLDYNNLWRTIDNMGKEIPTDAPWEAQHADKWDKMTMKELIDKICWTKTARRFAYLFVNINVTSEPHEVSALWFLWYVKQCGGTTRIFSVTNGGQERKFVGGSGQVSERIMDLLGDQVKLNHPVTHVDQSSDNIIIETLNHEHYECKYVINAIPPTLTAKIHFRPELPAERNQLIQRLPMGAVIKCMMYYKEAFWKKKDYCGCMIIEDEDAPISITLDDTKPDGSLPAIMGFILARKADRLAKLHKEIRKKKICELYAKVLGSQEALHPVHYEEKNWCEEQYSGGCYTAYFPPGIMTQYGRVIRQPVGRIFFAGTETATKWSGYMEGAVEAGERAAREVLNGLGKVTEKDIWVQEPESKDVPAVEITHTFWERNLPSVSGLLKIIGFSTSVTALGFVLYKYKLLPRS

IC50 [1]: > 100 µM
IC50 [2]: > 100 µM
IC50 [3]: ~100 µM
Structure (SMILES): Oc1ccc(C2CC2NC2CCNCC2)cc1 (stereo not drawn) [Example 23, 4-(2-(piperidin-4-ylamino)cyclopropyl)phenol]
